ChEMBL document CHEMBL4118118, “Hydrophobic structure of hairpin ten-ring pyrrole-imidazole polyamides enhances tumor tissue accumulation/retention in vivo” (Bioorg Med Chem, 2018)

Columns and labels:
[1] = Octanol water partition coefficient, log P of the compound by reverse-phase HPLC method; type: physicochemical
[2] = Retention time of the compound by reverse-phase HPLC method; type: physicochemical
[3] = Drug uptake in tumor of nude BALB/c mouse xenografted with human LS180 cells assessed as increase in mean fluorescence intensity at 1 mg/kg, iv measured at 0.25 to 72 hrs post administration by fluorescence-based imaging analysis; type: ADME, organism-based, Neoplasm; conditions: in vivo
[4] = Drug localization in nucleus of human LS180 cells at 1 uM after 2 hrs by DAPI-fluoresecence based confocal laser microscopy; type: ADME, subcellular; conditions: ls180, 2 h
[5] = Drug localization in nucleus of human SW480 cells at 1 uM after 2 hrs by DAPI-fluoresecence based confocal laser microscopy; type: ADME, subcellular; conditions: sw480, 2 h
[6] = Drug uptake in tumor of human SW480 cells xenografted in nude BALB/c mouse assessed as increase in mean fluorescence intensity at 1 mg/kg, iv measured at 0.25 to 72 hrs post administration by fluorescence-based imaging analysis; type: ADME, organism-based, Neoplasm; conditions: in vivo
[7] = Drug uptake in nude BALB/c mouse body cavity xenografted with human LS180 cells assessed as increase in mean fluorescence intensity at 1 mg/kg, iv measured at 24 hrs post administration by fluorescence-based imaging analysis; type: ADME, organism-based; conditions: in vivo
[8] = Drug uptake in tumor of nude BALB/c mouse xenografted with human LS180 cells at 1 mg/kg, iv measured at 3 days post administration by DAPI-based confocal laser microscopic analysis; type: ADME, organism-based, Neoplasm; conditions: in vivo, 72 h
[9] = Drug uptake in tumor of nude BALB/c mouse xenografted with human LS180 cells at 1 mg/kg, iv measured at 48 hrs post administration by fluorescence-based imaging analysis; type: ADME, organism-based, Neoplasm; conditions: in vivo
[10] = Drug uptake in tumor of nude BALB/c mouse xenografted with human LS180 cells at 1 mg/kg, iv measured at 2 hrs post administration by fluorescence-based imaging analysis; type: ADME, organism-based, Neoplasm; conditions: in vivo
[11] = Drug uptake in human LS180 cells after 24 hrs by fluorospectrometry; type: ADME, cell-based; conditions: ls180, 24 h
[12] = Drug uptake in tumor of nude BALB/c mouse xenografted with human LS180 cells at 1 mg/kg, iv measured after 9 days post administration by fluorescence-based imaging analysis; type: ADME, organism-based, Neoplasm; conditions: in vivo, 216 h
[13] = Drug uptake in liver of nude BALB/c mouse xenografted with human LS180 cells at 1 mg/kg, iv measured at 3 days post administration by DAPI-based confocal laser microscopic analysis; type: ADME, organism-based; conditions: in vivo, 72 h
[14] = Drug uptake in tumor of nude BALB/c mouse xenografted with human LS180 cells assessed as increase in mean fluorescence intensity at 1 mg/kg, iv measured at 3 to 72 hrs post administration by fluorescence-based imaging analysis; type: ADME, organism-based, Neoplasm; conditions: in vivo
[15] = Drug uptake in heart of nude BALB/c mouse xenografted with human LS180 cells at 1 mg/kg, iv measured at 3 to 9 days post administration by DAPI-based confocal laser microscopic analysis; type: ADME, organism-based; conditions: in vivo
[16] = Drug uptake in human LS180 cells up to 1 uM in presence of 4 degC temperature for 2 hrs by fluorospectrometry; type: ADME, cell-based; conditions: ls180, 2 h
[17] = Drug uptake in human SW480 cells xenografted in nude BALB/c mouse at 1 mg/kg, iv measured after 9 days post administration by fluorescence-based imaging analysis; type: ADME, organism-based, Neoplasm; conditions: in vivo, 216 h
[18] = Drug uptake in nude BALB/c mouse body cavity xenografted with human LS180 cells assessed as increase in mean fluorescence intensity at 1 mg/kg, iv measured at 1 hr post administration by fluorescence-based imaging analysis; type: ADME, organism-based; conditions: in vivo
[19] = Drug uptake in spleen of nude BALB/c mouse xenografted with human LS180 cells at 1 mg/kg, iv measured at 3 to 9 days post administration by DAPI-based confocal laser microscopic analysis; type: ADME, organism-based; conditions: in vivo
[20] = Drug uptake in human SW480 cells after 24 hrs by fluorospectrometry; type: ADME, cell-based; conditions: sw480, 24 h
[21] = Drug uptake in tumor of nude BALB/c mouse xenografted with human SW480 cells at 1 mg/kg, iv measured up to 22 days post administration by fluorescence-based imaging analysis; type: ADME, organism-based, Neoplasm; conditions: in vivo, 528 h
[22] = Drug uptake in kidneys of nude BALB/c mouse xenografted with human LS180 cells at 1 mg/kg, iv measured at 3 days post administration by DAPI-based confocal laser microscopic analysis; type: ADME, organism-based, Kidney; conditions: in vivo, 72 h
[23] = Drug uptake in tumor of nude BALB/c mouse xenografted with human LS180 cells at 1 mg/kg, iv measured at 9 days post administration by DAPI-based confocal laser microscopic analysis; type: ADME, organism-based, Neoplasm; conditions: in vivo, 216 h
[24] = Drug uptake in lungs of nude BALB/c mouse xenografted with human LS180 cells at 1 mg/kg, iv measured at 3 to 9 days post administration by DAPI-based confocal laser microscopic analysis; type: ADME, organism-based, Lung; conditions: in vivo
[25] = Drug uptake in human LS180 cells up to 1 uM after 24 hrs by fluorospectrometry; type: ADME, cell-based; conditions: ls180, 24 h
[26] = Drug uptake in tumor of nude BALB/c mouse xenografted with human LS180 cells assessed as increase in mean fluorescence intensity at 1 mg/kg, iv measured at 6 hrs post administration by fluorescence-based imaging analysis; type: ADME, organism-based, Neoplasm; conditions: in vivo
[27] = Drug uptake in human SW480 cells up to 1 uM after 24 hrs by fluorospectrometry; type: ADME, cell-based; conditions: sw480, 24 h
Mus musculus [28] = experiment: Drug uptake in non-tumor tissue area of nude BALB/c mouse xenografted with human LS180 cells assessed as increase in mean fluorescence intensity at 1 mg/kg, iv measured at 5 mins post administration by fluorescence-based imaging analysis; type: ADME, organism-based; conditions: in vivo
Mus musculus [29] = experiment: Drug uptake in non-tumor tissue area of nude BALB/c mouse xenografted with human LS180 cells assessed as increase in mean fluorescence intensity at 1 mg/kg, iv measured at 24 hrs post administration by fluorescence-based imaging analysis; type: ADME, organism-based; conditions: in vivo
[30] = Drug uptake in tumor of nude BALB/c mouse xenografted with human LS180 cells assessed as mean fluorescence intensity at 1 mg/kg, iv measured at 72 hrs post administration by fluorescence-based imaging analysis; type: ADME, organism-based, Neoplasm; conditions: in vivo
[31] = Drug uptake in tumor of nude BALB/c mouse xenografted with human LS180 cells assessed as increase in mean fluorescence intensity at 1 mg/kg, iv measured at 48 hrs post administration by fluorescence-based imaging analysis; type: ADME, organism-based, Neoplasm; conditions: in vivo
[32] = Drug uptake in tumor of nude BALB/c mouse xenografted with human LS180 cells at 1 mg/kg, iv measured after 4 days post administration by fluorescence-based imaging analysis; type: ADME, organism-based, Neoplasm; conditions: in vivo, 96 h
[33] = Drug uptake in tumor of nude BALB/c mouse xenografted with human LS180 cells assessed as increase in mean fluorescence intensity at 1 mg/kg, iv measured at 3 hrs post administration by fluorescence-based imaging analysis; type: ADME, organism-based, Neoplasm; conditions: in vivo

CN(C)CCCNC(=O)CCNC(=O)c1cc(NC(=O)c2cc(NC(=O)CCNC(=O)c3cc(NC(=O)c4cc(NC(=O)c5cc(NC(=O)CCCNC(=O)c6cc(NC(=O)c7nc(NC(=O)c8nc(NC(=O)CCNC(=O)c9nc(NC(=O)c%10nc(NC(=O)CCNC(=S)Nc%11ccc(-c%12c%13ccc(=O)cc-%13oc%13cc(O)ccc%12%13)c(C(=O)O)c%11)cn%10C)cn9C)cn8C)cn7C)cn6C)cn5C)cn4C)cn3C)cn2C)cn1C
logP [1]: 1.36 | Retention_time [2]: 10.48 min

CN(C)CCCNC(=O)CCNC(=O)c1cc(NC(=O)c2cc(NC(=O)CCNC(=O)c3cc(NC(=O)c4cc(NC(=O)c5cc(NC(=O)CCCNC(=O)c6cc(NC(=O)c7cc(NC(=O)c8cc(NC(=O)CCNC(=O)c9nc(NC(=O)c%10nc(NC(=O)CCNC(=S)Nc%11ccc(-c%12c%13ccc(=O)cc-%13oc%13cc(O)ccc%12%13)c(C(=O)O)c%11)cn%10C)cn9C)cn8C)cn7C)cn6C)cn5C)cn4C)cn3C)cn2C)cn1C
logP [1]: 1.46 | Retention_time [2]: 11.4 min

O=C(O)c1ccccc1-c1c2ccc(=O)cc-2oc2cc(O)ccc12
Drug uptake [3]: Not Active | Drug uptake [4]: Not Active | Drug uptake [5]: Not Active

CN(C)CCCNC(=O)CCNC(=O)c1cc(NC(=O)c2cc(NC(=O)CCNC(=O)c3cc(NC(=O)c4cc(NC(=O)c5cc(NC(=O)CCCNC(=O)c6cc(NC(=O)c7cc(NC(=O)c8cc(NC(=O)CCNC(=O)c9nc(NC(=O)c%10cc(NC(=O)CCNC(=S)Nc%11ccc(-c%12c%13ccc(=O)cc-%13oc%13cc(O)ccc%12%13)c(C(=O)O)c%11)cn%10C)cn9C)cn8C)cn7C)cn6C)cn5C)cn4C)cn3C)cn2C)cn1C
Drug uptake [6]: Active | Drug uptake [7]: Not Active | Drug uptake [8]: Active | Drug uptake [9]: 50% | Drug uptake [10]: Active | Drug uptake [11]: Dose-dependent effect | Drug uptake [12]: Active | Drug uptake [13]: Active | Drug uptake [14]: Active | Drug uptake [15]: Not Active | Drug uptake [16]: Active | Drug uptake [17]: Active | Drug uptake [4]: Active | Drug uptake [18]: Active | logP [1]: 1.5 | Drug uptake [19]: Not Active | Drug uptake [20]: Dose-dependent effect | Drug uptake [21]: Active | Retention_time [2]: 11.73 min | Drug uptake [22]: Active | Drug uptake [23]: Active | Drug uptake [24]: Not Active | Drug uptake [5]: Active

CN(C)CCCNC(=O)CCNC(=O)c1cc(NC(=O)c2cc(NC(=O)CCNC(=O)c3cc(NC(=O)c4cc(NC(=O)c5cc(NC(=O)CCCNC(=O)c6cc(NC(=O)c7cc(NC(=O)c8nc(NC(=O)CCNC(=O)c9nc(NC(=O)c%10nc(NC(=O)CCNC(=S)Nc%11ccc(-c%12c%13ccc(=O)cc-%13oc%13cc(O)ccc%12%13)c(C(=O)O)c%11)cn%10C)cn9C)cn8C)cn7C)cn6C)cn5C)cn4C)cn3C)cn2C)cn1C
Drug uptake [25]: Active | Drug uptake [6]: Active | Drug uptake [8]: Active | Drug uptake [9]: 50% | Drug uptake [10]: Active | Drug uptake [26]: Active | Drug uptake [12]: Not Active | Drug uptake [13]: Active | Drug uptake [15]: Not Active | Drug uptake [4]: Active | Drug uptake [27]: Active | logP [1]: 1.42 | Drug uptake (Mus musculus [28]): Active | Drug uptake [19]: Not Active | Drug uptake (Mus musculus [29]): Not Active | Retention_time [2]: 10.97 min | Drug uptake [30]: Active | Drug uptake [22]: Active | Drug uptake [23]: Not Active | Drug uptake [24]: Not Active | Drug uptake [5]: Active

CN(C)CCCNC(=O)CCNC(=O)c1cc(NC(=O)c2cc(NC(=O)CCNC(=O)c3cc(NC(=O)c4cc(NC(=O)c5cc(NC(=O)CCCNC(=O)c6nc(NC(=O)c7nc(NC(=O)c8nc(NC(=O)CCNC(=O)c9nc(NC(=O)c%10nc(NC(=O)CCNC(=S)Nc%11ccc(-c%12c%13ccc(=O)cc-%13oc%13cc(O)ccc%12%13)c(C(=O)O)c%11)cn%10C)cn9C)cn8C)cn7C)cn6C)cn5C)cn4C)cn3C)cn2C)cn1C
Drug uptake [31]: Not Active | Drug uptake [25]: Active | Drug uptake [6]: Active | Drug uptake [7]: Not Active | Drug uptake [8]: Active | Drug uptake [9]: 50% | Drug uptake [32]: Not Active | Drug uptake [10]: Active | Drug uptake [13]: Active | Drug uptake [15]: Not Active | Drug uptake [16]: Not Active | Drug uptake [4]: Active | Drug uptake [27]: Active | logP [1]: 1.19 | Drug uptake [19]: Not Active | Retention_time [2]: 8.86 min | Drug uptake [33]: Active | Drug uptake [22]: Active | Drug uptake [23]: Not Active | Drug uptake [24]: Not Active | Drug uptake [5]: Active
